pEC50: −log10 of the molar value. ≈ marks a conversion by molar mass, not a printed value. Calls of active or inactive are those of the source. No cut-off for these calls is given here.
Experiments:
Enterovirus A71 = assay: Antiviral activity against Enterovirus A71 isolate 46973 infected in human RD cells assessed as reduction in virus induced cytopathic effect preincubated with viral suspension for 1 hr followed by cell addition measured after 5 to 7 days; format: functional, organism-based
[1] = tested on: Tick-borne encephalitis virus; assay: Antiviral activity against TBEV Absettarov infected in PEK cells assessed as plaque reduction preincubated for 1 hr followed by overlaying with 1.26% methylcellulose and measured after 6 days by gentian violet staining-based assay; format: functional, organism-based
[2] = Cytotoxicity against African green monkey Vero cells assessed as reduction in cell viability after 24 hrs by microscopic method; format: cell-based; conditions: chlorocebus sabaeus
[3] = Cytotoxicity against human RD cells assessed as reduction in cell viability after 24 hrs by microscopic method; format: cell-based
[4] = Cytotoxicity against PEK cells assessed as formation of syncytium-like patterns of cells at 50 uM after 7 days by microscopic method; format: cell-based, Sus scrofa; conditions: pig, 168 h
[5] = Cytotoxicity against PEK cells assessed as reduction in cell viability after 7 days by microscopic method; format: cell-based, Sus scrofa; conditions: pig
[6] = Cytotoxicity against human RD cells assessed as reduction in cell viability after 7 days by microscopic method; format: cell-based
Vero = assay: Cytotoxicity against African green monkey Vero cells assessed as formation of syncytium-like patterns of cells at 50 uM after 7 days by microscopic method; format: cell-based; conditions: chlorocebus sabaeus, 168 h
Poliovirus 1 = assay: Antiviral activity against poliovirus type 1 sabin 1; format: functional, organism-based
Echovirus = assay: Antiviral activity against Echovirus 30 isolate 48461; format: functional, organism-based
[7] = Cytotoxicity against PEK cells assessed as reduction in cell viability after 24 hrs by microscopic method; format: cell-based, Sus scrofa; conditions: pig
RD = assay: Cytotoxicity against human RD cells assessed as formation of syncytium-like patterns of cells at 50 uM after 7 days by microscopic method; format: cell-based; conditions: 168 h
[8] = Cytotoxicity against African green monkey Vero cells assessed as reduction in cell viability after 7 days by microscopic method; format: cell-based; conditions: chlorocebus sabaeus
Human alphaherpesvirus 1 = assay: Antiviral activity against HSV-1 infected in African green monkey Vero cells preincubated with virus for 5 mins; format: functional, organism-based; conditions: Human alphaherpesvirus 1, Vero
[9] = Solubility of compound in 15% DMSO by spectrophotometric analysis; format: physicochemical

| Compound | EC50 (Enterovirus A71) | pEC50 [1] | CC50 at 24 h [2] [µM] | CC50 at 24 h [3] [µM] | Activity [4] | CC50 at 168 h [5] [µM] | CC50 at 168 h [6] [µM] | Activity (Vero) | Activity (Poliovirus 1) | Activity (Echovirus) | CC50 at 24 h [7] [µM] | Activity (RD) | CC50 at 168 h [8] [µM] | pEC50 (Human alphaherpesvirus 1) | solubility [9] [µM] |
| --- | --- | --- | --- | --- | --- | --- | --- | --- | --- | --- | --- | --- | --- | --- | --- |
| O=C(Cn1cc(C#Cc2ccc3c4cccc5cccc(c6cccc2c63)c54)c(=O)[nH]c1=O)NCCCO | Not Active | 8.22 | > 50 | > 104 | Toxic | > 50 | > 104 | Toxic | inactive | inactive | > 50 | Toxic | > 50 |  |  |
| O=c1[nH]c(=O)n([C@H]2CC[C@@H](CO)O2)cc1C#Cc1ccc2c3cccc4cccc(c5cccc1c52)c43 |  |  |  |  |  |  |  |  |  |  |  |  |  | 7.06 |  |
| CC(C)(C)C(=O)OCn1c(=O)c(C#Cc2ccc3c4cccc5cccc(c6cccc2c63)c54)cn(CC(=O)NC[C@H](O)C(C)(C)CO)c1=O | Not Active | 9.10 | > 50 | 19 | Toxic | > 50 | 19 | Toxic | inactive | inactive | > 50 | Toxic | > 50 |  |  |
| CCCCNC(=O)Cn1cc(C#Cc2ccc3c4cccc5cccc(c6cccc2c63)c54)c(=O)[nH]c1=O | Not Active | 7.85 |  | 76 | Toxic | > 50 | 76 | Toxic | inactive | inactive | > 50 | Toxic |  |  |  |
| CC(C)(C)C(=O)OCn1c(=O)c(C#Cc2ccc3c4cccc5cccc(c6cccc2c63)c54)cn(CC(=O)NCCO)c1=O | Not Active | 8.68 | 32 | 19 | Toxic | > 50 | 38 | Toxic | inactive | inactive | > 50 | Toxic | 38 |  |  |
| CC(C)(C)C(=O)OCn1c(=O)c(C#Cc2ccc3c4cccc5cccc(c6cccc2c63)c54)cn(CC(=O)NCCCO)c1=O | Not Active | 9.37 | 38 | 19 | Toxic | > 50 | 10 | Toxic | inactive | inactive | > 50 | Toxic | > 50 |  | 49 (≈ 30.2 µg/mL) |
| O=C(O)Cn1cc(C#Cc2ccc3c4cccc5cccc(c6cccc2c63)c54)c(=O)[nH]c1=O | Not Active | 7.30 | > 50 | 61 | Toxic | > 50 | 65 | Toxic | inactive | inactive | > 50 | Toxic | > 50 |  |  |
| O=C(Cn1cc(C#Cc2ccc3c4cccc5cccc(c6cccc2c63)c54)c(=O)[nH]c1=O)NCCCCCCO | Not Active | 8.21 | 38 | 19 | Toxic | > 50 | 38 | Toxic | inactive | inactive | > 50 | Toxic | > 50 |  |  |
| O=C(Cn1cc(C#Cc2ccc3c4cccc5cccc(c6cccc2c63)c54)c(=O)[nH]c1=O)N(CCO)CCO | Not Active | 8.15 | > 50 | > 104 | Toxic | > 50 | > 104 | Toxic | inactive | inactive | > 50 | Toxic | > 50 |  |  |
| CCCCNC(=O)Cn1cc(C#Cc2ccc3c4cccc5cccc(c6cccc2c63)c54)c(=O)n(COC(=O)C(C)(C)C)c1=O | Not Active | 7.27 | > 50 | 38 | Toxic | > 50 | 10 | Toxic | inactive | inactive | > 50 | Toxic | > 50 |  |  |
| O=C(Cn1cc(C#Cc2ccc3c4cccc5cccc(c6cccc2c63)c54)c(=O)[nH]c1=O)NCCCCCO | Not Active | 7.11 | > 50 | > 104 | Toxic | > 50 | > 104 | Toxic | inactive | inactive | > 50 | Toxic | > 50 |  |  |
| CC(C)(C)C(=O)OCn1c(=O)c(C#Cc2ccc3c4cccc5cccc(c6cccc2c63)c54)cn(CC(=O)NCCCCCCO)c1=O | Not Active | 7.62 | 38 | 19 | Toxic | > 50 | 38 | Toxic | inactive | inactive | > 50 | Toxic | > 50 |  |  |
| CC(C)(C)C(=O)OCn1c(=O)c(C#Cc2ccc3c4cccc5cccc(c6cccc2c63)c54)cn(CC(=O)NCCCCO)c1=O | Not Active | 9.16 | > 50 | 19 | Toxic | > 50 | 38 | Toxic | inactive | inactive | > 50 | Toxic | > 50 |  | 5.3 (≈ 3.34 µg/mL) |
| O=C(Cn1cc(C#Cc2ccc3c4cccc5cccc(c6cccc2c63)c54)c(=O)[nH]c1=O)NCCO | Not Active | 8.52 |  | > 104 | Toxic | > 50 | > 104 | Toxic | inactive | inactive | > 50 | Toxic |  |  |  |
| CC(C)(C)C(=O)OCn1c(=O)c(C#Cc2ccc3c4cccc5cccc(c6cccc2c63)c54)cn(CC(=O)N(CCO)CCO)c1=O | Not Active | 9.36 | 38 | 19 | Toxic | > 50 | 14 | Toxic | inactive | inactive | > 50 | Toxic | > 50 |  | 1000 (≈ 648 µg/mL) |
| CC(C)(C)C(=O)OCn1c(=O)c(C#Cc2ccc3c4cccc5cccc(c6cccc2c63)c54)cn(CC(=O)NCCCCCO)c1=O | Not Active | 8.80 | 32 | 19 | Toxic | > 50 | 10 | Toxic | inactive | inactive | > 50 | Toxic | > 50 |  |  |
| CC(C)(C)C(=O)OCn1c(=O)c(C#Cc2ccc3c4cccc5cccc(c6cccc2c63)c54)cn(CC(=O)O)c1=O |  | 8.92 |  |  | Toxic | > 50 |  | Toxic | inactive | inactive | > 50 | Toxic |  |  |  |
| CC(C)(C)C(=O)OC[C@@H]1CC[C@H](n2cc(C#Cc3ccc4c5cccc6cccc(c7cccc3c74)c65)c(=O)[nH]c2=O)O1 |  |  |  |  |  |  |  |  |  |  |  |  |  | 6.72 |  |

From ChEMBL document CHEMBL4346677, “Compounds based on 5-(perylen-3-ylethynyl)uracil scaffold: High activity against tick-borne encephalitis virus and non-specific activity against enterovirus A” (Eur J Med Chem, 2019)
